From ChEMBL document CHEMBL1201862, “PubChem BioAssay data set” (2004)
Calls of active or inactive are those of the source.

Assays:
[1] = biological target: T1, Estrogen receptor (Homo sapiens, UniProt P03372); experiment: ERα coactivator recruitment enhancers – biochemical, TR-FRET, ERα LBD, dose response (AID 737)
T1 sequence (P03372 whole entry): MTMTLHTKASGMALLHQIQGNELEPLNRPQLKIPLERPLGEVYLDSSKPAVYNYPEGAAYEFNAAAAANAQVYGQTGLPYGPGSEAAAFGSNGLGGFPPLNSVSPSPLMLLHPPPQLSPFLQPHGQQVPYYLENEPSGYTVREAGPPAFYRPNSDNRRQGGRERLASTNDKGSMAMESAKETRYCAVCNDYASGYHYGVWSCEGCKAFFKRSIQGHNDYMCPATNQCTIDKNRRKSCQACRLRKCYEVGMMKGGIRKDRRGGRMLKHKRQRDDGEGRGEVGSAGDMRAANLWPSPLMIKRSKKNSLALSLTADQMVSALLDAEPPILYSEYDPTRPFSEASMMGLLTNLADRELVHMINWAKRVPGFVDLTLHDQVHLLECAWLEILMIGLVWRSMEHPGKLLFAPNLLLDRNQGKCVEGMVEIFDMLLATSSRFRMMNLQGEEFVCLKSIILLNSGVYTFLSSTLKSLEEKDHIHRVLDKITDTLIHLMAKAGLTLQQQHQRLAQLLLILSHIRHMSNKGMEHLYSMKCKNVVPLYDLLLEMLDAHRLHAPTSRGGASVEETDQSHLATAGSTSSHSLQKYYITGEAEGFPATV

[2] = biological target: Polyadenylate-binding protein 1 (Homo sapiens, UniProt P11940); experiment: blockers of PABP interaction with poly(A) – biochemical, fluorescence polarization, […] (AID 2014)
[3] = biological target: Eukaryotic translation initiation factor 4H (Homo sapiens, UniProt Q15056); experiment: eIF4H binding inhibition – biochemical, uHTS, fluorescence polarization, translation initiation inhibitor project, primary screen (AID 2012)
[4] = tested on: HEK293; experiment: NOD2 signaling inhibitors in MDP-stimulated cells, cell-based, uHTS, luminescence (AID 2001); format: functional; conditions: Homo sapiens
[5] = tested on: HEK293; experiment: cells; conditions: Homo sapiens
[6] = tested on: HEK293; experiment: cells; format: functional, cell-based; conditions: Homo sapiens
[7] = tested on: HEK293; experiment: inhibition of NOD1-driven NF-kB reporter – cell-based, luminescence, uHTS, primary screen (AID 1578); format: functional; conditions: Homo sapiens
[8] = tested on: HEK293; experiment: cells; format: functional, cell-based; conditions: Homo sapiens; remark: listed apart in the source
[9] = biological target: T2, Nucleotide-binding oligomerization domain-containing protein 1 (Homo sapiens, UniProt Q9Y239); experiment: blockers of NOD1 pathway activity – revised, SAR follow-up (AID 2333); format: functional
T2 sequence (Q9Y239 whole entry): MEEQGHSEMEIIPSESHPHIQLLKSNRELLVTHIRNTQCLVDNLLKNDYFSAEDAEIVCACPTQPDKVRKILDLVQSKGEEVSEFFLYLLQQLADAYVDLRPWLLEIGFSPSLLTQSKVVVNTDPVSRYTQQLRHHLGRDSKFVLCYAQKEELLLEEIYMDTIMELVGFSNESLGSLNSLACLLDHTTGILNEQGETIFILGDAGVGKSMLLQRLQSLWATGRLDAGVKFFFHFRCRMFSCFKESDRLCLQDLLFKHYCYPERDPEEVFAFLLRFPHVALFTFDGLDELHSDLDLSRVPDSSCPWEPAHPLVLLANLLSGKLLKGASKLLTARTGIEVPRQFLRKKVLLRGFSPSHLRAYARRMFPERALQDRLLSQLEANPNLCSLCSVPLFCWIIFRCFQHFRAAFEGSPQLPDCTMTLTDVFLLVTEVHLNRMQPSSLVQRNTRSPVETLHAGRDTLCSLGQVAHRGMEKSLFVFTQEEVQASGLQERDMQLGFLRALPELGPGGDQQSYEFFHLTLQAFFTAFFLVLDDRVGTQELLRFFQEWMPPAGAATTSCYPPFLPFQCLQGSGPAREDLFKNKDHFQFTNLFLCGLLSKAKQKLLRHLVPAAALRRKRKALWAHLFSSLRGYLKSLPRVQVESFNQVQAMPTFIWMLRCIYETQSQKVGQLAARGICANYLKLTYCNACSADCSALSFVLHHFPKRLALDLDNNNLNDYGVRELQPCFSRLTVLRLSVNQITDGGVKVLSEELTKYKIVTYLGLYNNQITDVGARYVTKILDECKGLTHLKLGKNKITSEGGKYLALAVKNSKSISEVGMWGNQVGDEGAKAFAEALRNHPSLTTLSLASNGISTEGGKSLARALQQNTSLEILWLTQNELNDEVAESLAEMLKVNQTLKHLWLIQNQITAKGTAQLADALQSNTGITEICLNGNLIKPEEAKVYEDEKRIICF

[10] = biological target: Tumor necrosis factor (Homo sapiens, UniProt P01375); experiment: analog potency on TNFa NF-kB signaling – cell-based, revised, SAR follow-up (AID 2337); format: functional
[11] = biological target: Nucleotide-binding oligomerization domain-containing protein 2 (Homo sapiens, UniProt Q9HC29); experiment: PubChem AID 2334; format: functional
[12] = biological target: T3, Alkaline phosphatase, tissue-nonspecific isozyme (Homo sapiens, UniProt P05186)
T3 sequence (P05186 whole entry): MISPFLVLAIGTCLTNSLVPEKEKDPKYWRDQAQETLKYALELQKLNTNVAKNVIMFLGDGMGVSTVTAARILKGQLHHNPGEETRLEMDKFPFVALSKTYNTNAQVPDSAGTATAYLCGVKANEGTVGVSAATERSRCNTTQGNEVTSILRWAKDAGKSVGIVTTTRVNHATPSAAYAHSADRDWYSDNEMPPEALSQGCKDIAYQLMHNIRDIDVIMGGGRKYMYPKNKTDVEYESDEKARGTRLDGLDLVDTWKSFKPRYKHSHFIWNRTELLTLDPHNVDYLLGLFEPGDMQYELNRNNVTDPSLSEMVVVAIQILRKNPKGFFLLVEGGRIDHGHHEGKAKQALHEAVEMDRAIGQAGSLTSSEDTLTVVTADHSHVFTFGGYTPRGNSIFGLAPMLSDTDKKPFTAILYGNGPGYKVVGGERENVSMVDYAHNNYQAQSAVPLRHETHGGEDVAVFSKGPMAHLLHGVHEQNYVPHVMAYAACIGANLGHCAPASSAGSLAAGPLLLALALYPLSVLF

[13] = tested on: Streptococcus sp. 'group A'; experiment: Streptococcus pyogenes SK(-)GAS viability under kanamycin – luminescence, BacTiterGlo, confirmation, counter-screen for streptokinase expression inhibitor project, dose response (AID 1900); format: functional, organism-based
[14] = tested on: Streptococcus; experiment: GAS UMAA2166 growth inhibition – luminescence, BacTiterGlo, counter-screen for streptokinase expression inhibitor project, dose response (AID 1915); format: functional, organism-based;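 also: potency for reduction of bacterial viability or growth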
[15] = biological target: T4, Heat shock factor protein 1 (Mus musculus, UniProt P38532); experiment: decrease of HSF1-responsive luciferase luminescence – cell-based, NIH3T3, dose retest, confirmation (AID 2382); format: functional;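 also: NIH3T3 fibroblasts with HSF1-driven luciferase reporter stressed by proteasome inhibitor MG132; luminescence from HSF1-driven luciferase expression after 8 hours of MG132 stress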
T4 sequence (P38532 whole entry): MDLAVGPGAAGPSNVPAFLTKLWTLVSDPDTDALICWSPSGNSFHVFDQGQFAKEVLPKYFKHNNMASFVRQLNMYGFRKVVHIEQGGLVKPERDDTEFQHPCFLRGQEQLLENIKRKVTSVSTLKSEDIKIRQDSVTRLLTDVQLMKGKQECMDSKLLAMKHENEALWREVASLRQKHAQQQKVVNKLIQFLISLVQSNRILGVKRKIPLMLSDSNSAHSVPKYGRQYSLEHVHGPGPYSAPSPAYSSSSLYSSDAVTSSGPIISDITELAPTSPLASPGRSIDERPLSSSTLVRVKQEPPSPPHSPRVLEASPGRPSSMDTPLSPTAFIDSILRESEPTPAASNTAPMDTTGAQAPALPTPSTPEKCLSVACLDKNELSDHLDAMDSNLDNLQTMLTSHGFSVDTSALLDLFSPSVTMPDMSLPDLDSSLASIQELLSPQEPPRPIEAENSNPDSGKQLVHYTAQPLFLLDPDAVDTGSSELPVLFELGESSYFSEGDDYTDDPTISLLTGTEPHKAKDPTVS

[16] = A High Throughput Confirmatory Assay used to Identify Novel Compounds that Inhibit Mycobacterium Tuberculosis in the absence of Glycerol.; format: functional
[17] = viability loss in THP-1 monocytes – THP-1 cells, cytotoxicity control for Vif-APOBEC3G degradation inhibitor project, dose response (AID 1117359); format: functional; conditions: THP-1
[18] = microbe, parasite or virus in culture; format: functional; conditions: Mycobacterium tuberculosis
[19] = biological target: T5, Protein Tat (Human immunodeficiency virus type 1 group M subtype B (isolate HXB2)(HIV-1), UniProt P04608); format: functional;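 also: tat binding to TAR RNA read out by fluorescence polarization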
T5 sequence (P04608 whole entry): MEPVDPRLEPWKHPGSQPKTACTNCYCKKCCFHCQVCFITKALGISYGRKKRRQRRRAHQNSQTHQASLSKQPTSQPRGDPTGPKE

[20] = biological target: Hexokinase HKDC1 (Homo sapiens, UniProt Q2TB90); experiment: inhibition of HKDC1 glucose phosphorylation – biochemical, W721R variant, dose response (AID 504729); format: functional
[21] = tested on: Vero; experiment: viability of Vero cells under compound – cytotoxicity control for flavivirus capping enzyme inhibitors (AID 588742); format: functional; conditions: Chlorocebus sabaeus
[22] = biological target: T6, Corticotropin-releasing factor receptor 2/Corticotropin-releasing factor-binding protein (Homo sapiens, UniProt P24387+Q13324); experiment: activators of CRF receptor 2 with binding protein – uHTS hits, confirmation (AID 602473); format: functional; conditions: read-out: EC50_Mean
T6 sequence (Q13324 whole entry): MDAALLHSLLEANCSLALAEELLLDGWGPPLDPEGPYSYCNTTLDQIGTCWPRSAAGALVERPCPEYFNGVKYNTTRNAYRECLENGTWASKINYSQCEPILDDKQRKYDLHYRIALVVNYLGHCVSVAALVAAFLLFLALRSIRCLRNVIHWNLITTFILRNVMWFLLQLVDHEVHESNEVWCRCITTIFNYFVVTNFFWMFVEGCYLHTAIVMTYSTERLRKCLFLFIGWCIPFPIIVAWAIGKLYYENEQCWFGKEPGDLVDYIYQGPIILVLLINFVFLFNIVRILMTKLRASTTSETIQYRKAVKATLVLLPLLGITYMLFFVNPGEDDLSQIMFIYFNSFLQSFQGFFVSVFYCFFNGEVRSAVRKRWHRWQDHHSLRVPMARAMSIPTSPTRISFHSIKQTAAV
T6 sequence (P24387 whole entry): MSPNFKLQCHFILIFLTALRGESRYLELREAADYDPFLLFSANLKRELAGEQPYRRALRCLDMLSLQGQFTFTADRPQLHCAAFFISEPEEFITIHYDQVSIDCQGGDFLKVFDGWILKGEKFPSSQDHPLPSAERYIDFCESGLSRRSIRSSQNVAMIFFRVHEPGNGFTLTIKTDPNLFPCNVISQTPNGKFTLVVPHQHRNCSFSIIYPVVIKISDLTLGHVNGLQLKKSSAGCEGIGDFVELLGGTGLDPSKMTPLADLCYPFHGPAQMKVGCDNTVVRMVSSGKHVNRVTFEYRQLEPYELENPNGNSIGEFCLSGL

[23] = biological target: Genome polyprotein (dengue virus type 2, UniProt P29990); experiment: flavivirus cap methylation enzyme inhibition – biochemical, confirmation dose response, primary screen (AID 588689); format: functional
[24] = biological target: Aminopeptidase N (Plasmodium falciparum FcB1/Columbia, UniProt O96935); experiment: malaria alanyl aminopeptidase activity blockers – biochemical, fluorogenic H-Leu-NHMec substrate, 1536-well (AID 1445); design: species or system Plasmodium falciparum 3D7, 3D7
Aminopeptidase N, sequence (O96935 whole entry): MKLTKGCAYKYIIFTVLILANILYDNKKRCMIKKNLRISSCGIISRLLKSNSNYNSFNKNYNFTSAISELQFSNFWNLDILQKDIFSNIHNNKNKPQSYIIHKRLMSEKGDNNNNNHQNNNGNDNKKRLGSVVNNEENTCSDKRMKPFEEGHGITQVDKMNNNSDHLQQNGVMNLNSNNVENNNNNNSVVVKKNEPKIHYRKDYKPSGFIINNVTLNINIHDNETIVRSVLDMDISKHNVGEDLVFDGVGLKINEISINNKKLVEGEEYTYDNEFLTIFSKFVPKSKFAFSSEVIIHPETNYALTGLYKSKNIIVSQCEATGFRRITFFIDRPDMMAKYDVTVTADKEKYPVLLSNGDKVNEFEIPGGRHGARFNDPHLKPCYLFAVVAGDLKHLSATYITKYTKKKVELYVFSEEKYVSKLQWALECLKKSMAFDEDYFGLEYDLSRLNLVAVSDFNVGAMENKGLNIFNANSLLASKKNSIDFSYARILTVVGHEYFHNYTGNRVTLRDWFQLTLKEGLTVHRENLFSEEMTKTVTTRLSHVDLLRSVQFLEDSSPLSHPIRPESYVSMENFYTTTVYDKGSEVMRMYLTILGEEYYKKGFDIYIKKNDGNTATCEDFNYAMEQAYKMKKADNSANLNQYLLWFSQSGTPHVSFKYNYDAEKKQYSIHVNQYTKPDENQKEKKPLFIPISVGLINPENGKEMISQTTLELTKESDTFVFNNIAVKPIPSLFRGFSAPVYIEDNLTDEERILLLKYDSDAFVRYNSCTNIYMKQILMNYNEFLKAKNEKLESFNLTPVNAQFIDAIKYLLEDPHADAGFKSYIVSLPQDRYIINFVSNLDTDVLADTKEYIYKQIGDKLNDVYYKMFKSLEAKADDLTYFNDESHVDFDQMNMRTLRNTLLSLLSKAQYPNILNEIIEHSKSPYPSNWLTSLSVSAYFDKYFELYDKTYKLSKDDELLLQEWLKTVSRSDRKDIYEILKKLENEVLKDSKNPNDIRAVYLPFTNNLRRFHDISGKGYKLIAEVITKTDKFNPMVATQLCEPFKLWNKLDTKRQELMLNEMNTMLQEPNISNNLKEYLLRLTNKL

Polyadenylate-binding protein 1, sequence (P11940 whole entry): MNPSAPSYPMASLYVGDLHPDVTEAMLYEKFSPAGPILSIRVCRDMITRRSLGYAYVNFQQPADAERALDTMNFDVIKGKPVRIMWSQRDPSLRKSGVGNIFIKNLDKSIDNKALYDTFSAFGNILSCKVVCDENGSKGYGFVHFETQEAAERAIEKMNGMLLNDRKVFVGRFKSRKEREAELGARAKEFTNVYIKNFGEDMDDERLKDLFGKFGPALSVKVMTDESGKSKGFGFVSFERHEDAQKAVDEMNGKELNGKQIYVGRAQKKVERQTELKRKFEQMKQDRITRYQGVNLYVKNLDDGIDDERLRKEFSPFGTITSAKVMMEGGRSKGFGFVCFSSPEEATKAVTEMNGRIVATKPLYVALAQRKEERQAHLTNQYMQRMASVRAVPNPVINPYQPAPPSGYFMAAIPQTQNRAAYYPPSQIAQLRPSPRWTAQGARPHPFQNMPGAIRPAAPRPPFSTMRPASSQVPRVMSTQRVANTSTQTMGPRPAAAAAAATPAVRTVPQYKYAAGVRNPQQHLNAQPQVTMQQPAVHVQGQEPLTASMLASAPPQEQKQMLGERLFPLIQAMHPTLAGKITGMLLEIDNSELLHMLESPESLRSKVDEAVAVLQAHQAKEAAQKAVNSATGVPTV
Nucleotide-binding oligomerization domain-containing protein 2, sequence (Q9HC29 whole entry, the tested form may be a part): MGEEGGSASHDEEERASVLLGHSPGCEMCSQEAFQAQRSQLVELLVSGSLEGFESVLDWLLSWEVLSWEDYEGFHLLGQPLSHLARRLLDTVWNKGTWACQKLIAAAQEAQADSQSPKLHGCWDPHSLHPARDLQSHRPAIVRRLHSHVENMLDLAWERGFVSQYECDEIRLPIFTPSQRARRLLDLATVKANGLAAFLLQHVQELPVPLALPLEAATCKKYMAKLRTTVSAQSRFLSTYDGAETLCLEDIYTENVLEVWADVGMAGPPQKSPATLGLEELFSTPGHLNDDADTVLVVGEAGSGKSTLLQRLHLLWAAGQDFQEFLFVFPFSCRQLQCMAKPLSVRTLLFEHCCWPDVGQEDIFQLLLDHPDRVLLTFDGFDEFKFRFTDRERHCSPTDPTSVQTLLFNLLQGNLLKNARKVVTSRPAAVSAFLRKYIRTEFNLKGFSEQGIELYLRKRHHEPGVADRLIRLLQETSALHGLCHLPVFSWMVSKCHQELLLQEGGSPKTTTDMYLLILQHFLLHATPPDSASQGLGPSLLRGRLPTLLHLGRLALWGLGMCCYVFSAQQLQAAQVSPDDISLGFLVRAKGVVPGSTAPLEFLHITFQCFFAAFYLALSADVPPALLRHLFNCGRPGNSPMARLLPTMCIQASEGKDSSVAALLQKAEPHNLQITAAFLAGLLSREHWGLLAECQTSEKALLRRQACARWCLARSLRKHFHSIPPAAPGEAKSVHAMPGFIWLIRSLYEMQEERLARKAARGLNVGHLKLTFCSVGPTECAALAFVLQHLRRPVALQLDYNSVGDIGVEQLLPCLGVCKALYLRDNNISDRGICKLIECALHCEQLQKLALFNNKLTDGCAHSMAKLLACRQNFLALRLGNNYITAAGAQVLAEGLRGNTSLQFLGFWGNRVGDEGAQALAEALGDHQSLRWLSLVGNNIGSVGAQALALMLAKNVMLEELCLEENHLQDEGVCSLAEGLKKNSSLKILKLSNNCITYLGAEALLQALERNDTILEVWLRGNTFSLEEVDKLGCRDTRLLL
Tumor necrosis factor, sequence (P01375 whole entry, the tested form may be a part): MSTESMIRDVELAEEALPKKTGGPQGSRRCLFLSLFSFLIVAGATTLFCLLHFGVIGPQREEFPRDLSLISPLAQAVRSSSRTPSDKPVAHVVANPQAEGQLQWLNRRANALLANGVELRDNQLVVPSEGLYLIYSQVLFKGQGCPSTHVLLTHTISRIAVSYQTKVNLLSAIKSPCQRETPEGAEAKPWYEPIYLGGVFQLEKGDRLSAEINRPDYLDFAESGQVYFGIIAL
Genome polyprotein, sequence (P29990 2492-3391 limits assumed): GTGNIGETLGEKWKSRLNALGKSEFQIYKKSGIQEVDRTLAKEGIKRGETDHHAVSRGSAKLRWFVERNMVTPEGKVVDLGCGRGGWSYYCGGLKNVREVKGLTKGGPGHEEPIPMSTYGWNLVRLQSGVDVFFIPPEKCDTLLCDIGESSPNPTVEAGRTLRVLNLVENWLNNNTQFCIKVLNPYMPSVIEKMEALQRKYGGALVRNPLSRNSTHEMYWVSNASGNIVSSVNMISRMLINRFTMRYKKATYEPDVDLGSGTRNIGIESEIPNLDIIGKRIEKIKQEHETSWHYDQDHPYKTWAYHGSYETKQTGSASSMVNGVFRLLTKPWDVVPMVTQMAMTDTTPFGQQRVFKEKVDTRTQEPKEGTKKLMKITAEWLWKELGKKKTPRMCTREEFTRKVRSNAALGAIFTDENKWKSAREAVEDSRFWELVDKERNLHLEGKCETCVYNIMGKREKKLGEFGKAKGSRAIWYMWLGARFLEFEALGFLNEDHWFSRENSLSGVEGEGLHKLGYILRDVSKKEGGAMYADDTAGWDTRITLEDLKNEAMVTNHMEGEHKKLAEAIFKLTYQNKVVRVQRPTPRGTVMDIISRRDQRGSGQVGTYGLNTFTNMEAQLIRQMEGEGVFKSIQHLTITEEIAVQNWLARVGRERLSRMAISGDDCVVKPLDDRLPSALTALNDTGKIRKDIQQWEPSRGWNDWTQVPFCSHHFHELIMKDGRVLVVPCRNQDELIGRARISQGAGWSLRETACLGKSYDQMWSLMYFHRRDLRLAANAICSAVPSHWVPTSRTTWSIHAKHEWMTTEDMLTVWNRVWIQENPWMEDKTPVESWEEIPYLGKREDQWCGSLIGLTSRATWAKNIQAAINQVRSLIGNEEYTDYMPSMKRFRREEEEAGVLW
Hexokinase HKDC1, sequence (Q2TB90 whole entry): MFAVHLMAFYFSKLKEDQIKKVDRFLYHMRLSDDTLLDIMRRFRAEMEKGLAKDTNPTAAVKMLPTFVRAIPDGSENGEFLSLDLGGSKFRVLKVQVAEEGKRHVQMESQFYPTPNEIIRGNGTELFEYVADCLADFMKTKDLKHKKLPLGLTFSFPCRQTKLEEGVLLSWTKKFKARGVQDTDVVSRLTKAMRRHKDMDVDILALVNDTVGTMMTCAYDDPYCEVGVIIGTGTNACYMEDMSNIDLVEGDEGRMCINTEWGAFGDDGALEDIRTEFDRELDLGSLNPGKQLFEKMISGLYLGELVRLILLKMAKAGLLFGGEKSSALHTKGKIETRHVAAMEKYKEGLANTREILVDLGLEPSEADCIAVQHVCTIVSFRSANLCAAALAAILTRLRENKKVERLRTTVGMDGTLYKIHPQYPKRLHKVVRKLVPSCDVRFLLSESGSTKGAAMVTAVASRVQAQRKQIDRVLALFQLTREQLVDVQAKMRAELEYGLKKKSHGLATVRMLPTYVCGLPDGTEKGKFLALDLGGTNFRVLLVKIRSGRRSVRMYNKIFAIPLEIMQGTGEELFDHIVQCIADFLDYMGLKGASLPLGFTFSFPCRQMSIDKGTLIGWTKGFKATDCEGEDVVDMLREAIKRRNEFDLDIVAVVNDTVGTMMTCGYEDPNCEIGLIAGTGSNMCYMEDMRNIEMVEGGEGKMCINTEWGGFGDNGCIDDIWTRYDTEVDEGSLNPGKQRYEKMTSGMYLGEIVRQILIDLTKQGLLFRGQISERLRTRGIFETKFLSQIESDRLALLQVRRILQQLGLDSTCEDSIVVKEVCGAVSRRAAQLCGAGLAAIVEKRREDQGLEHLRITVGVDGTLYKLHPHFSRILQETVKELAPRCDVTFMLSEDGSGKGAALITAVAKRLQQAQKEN

Structure (SMILES): O=C(Cn1c(=O)oc2cc(S(=O)(=O)N3CCCCCC3)ccc21)NC1CCCCC1
- EC50 [1]: 12.9 µM (not active)

Structure (SMILES): Cc1ccccc1N(C)S(=O)(=O)c1nnc(NC(=O)c2ccco2)s1
- IC50 [2]: 67.8 µM (active)
- IC50 [3]: 25.9 µM (active)

Structure (SMILES): C=CCN(c1ccccc1OC)S(=O)(=O)c1ccc(Cl)c(C(=O)Nc2ccc(N3CCOCC3)cc2)c1
- IC50 [4]: 14.4 µM (inactive)
- IC50 [5]: > 20 µM (inactive)
- IC50 [6]: > 20 µM (inactive)
- EC50 [7]: 12 µM (active)
- IC50 [8]: > 20 µM (inactive)
- IC50 [9]: 14 µM (active)
- IC50 [10]: 13.2 µM (active)
- IC50 [11]: 10.4 µM (active)

Structure (SMILES): O=C(Nc1ccccc1-c1ccccc1)NC1CC2CCCC(C1)N2CCc1ccccc1 (stereo not drawn)
- EC50 [12]: 51.2 µM (not active)

Structure (SMILES): CC(=O)NC(=S)Nc1ccc(NC(=S)NC(=O)/C=C/c2ccco2)cc1
- EC50 [13]: 2.69 µM (active)
- EC50 [14]: 5.33 µM (active)
- IC50 [2]: > 100 µM (inactive)
- IC50 [3]: 36.7 µM (active)

Structure (SMILES): C=CCSC1=Nc2sccc2C2=NC(=O)CN12
- EC50 [12]: > 100 µM (not active)
- EC50 [15]: 18.5 µM (active)

Structure (SMILES): COCCOC(=O)c1ccc(NC(=O)COc2ccc([N+](=O)[O-])cc2)cc1
- IC50 [16]: > 100 µM (active)

Structure (SMILES): Oc1ccc2ccccc2c1C1Nc2cccc3cccc(c23)N1
- IC50 [16]: > 100 µM (active)
- CC50 [17]: > 40 µM (active)
- CC50 [18]: > 40 µM (active)
- IC50 [19]: 41.7 µM (inconclusive)

Structure (SMILES): Cc1ccc(-n2c3nc(=O)[nH]c(=O)c-3cc3cc([N+](=O)[O-])ccc32)cc1C
- IC50 [20]: 6.47 µM (active)
- CC50 [21]: 29.7 µM (active)
- EC50 [22]: 10 µM (active)
- IC50 [23]: 65.1 µM (active)

Structure (SMILES): O=C(c1cnc2n(c1=O)CCS2)N(C1CCCCC1)C1CCCCC1
- IC50 [24]: 149 µM (active)

Structure (SMILES): O=C(Nc1nc2ccccc2n1Cc1ccc(Cl)cc1)c1cccs1
- IC50 [5]: > 20 µM (inactive)
- IC50 [9]: > 20 µM (inactive)
- IC50 [10]: > 20 µM (inactive)
- IC50 [11]: > 20 µM (inactive)

Structure (SMILES): COc1ccccc1-c1nnc(SC/C(O)=C(\C#N)c2nc3ccccc3[nH]2)n1C1CCCCC1
- IC50 [24]: 52.2 µM (active)
